Test results: US10517889B2, “Modulators of SMAD7 expression” (Ionis Pharmaceuticals, Inc., priority 2017, dated 2019)
Where “and” joins values, the source holds several entries; their conditions need not be identical. Equal values may be shown once.

Columns and labels:
[1] = Pharmacokinetics: oligonucleotide concentration in the plasma on day 28 after oral gavage in beagle dogs (Example 12); assay type: in vivo; details: 200 mg oral gavage
Procedure: There were 4 animals per group.
Plasma concentrations of Ionis oligonucleotides were also measured on Day 28 at various time points.

[2] = Organ weights after oral gavage in beagle dogs (Example 12); details: 200 mg oral gavage for 4 weeks, day 30
Procedure: (§1) Groups of 24-25 week old male beagle dogs were administered 200 mg Ionis human SMAD7 oligonucleotide by oral gavage once a week for 4 weeks. There were 4 animals per group. A control group of dogs received oral administration of distilled water. Dogs were sacrificed on day 30 approximately 48 hours after the final dose and organs and plasma were harvested for further analysis.

[3] = Organ weights after subcutaneous administration in CD-1 mice (Example 6); assay type: in vivo; details: end of study, 50 mg/kg subcutaneously twice a week for 7 weeks
Procedure: Groups of 8-9 week old male CD-1 mice were injected subcutaneously twice a week for 7 weeks with 50 mg/kg of Ionis oligonucleotides (100 mg/kg/week dose). Each group contained 4 mice. One group of male CD-1 mice was injected subcutaneously twice a week for 7 weeks with PBS. Plasma was collected for analysis on day 28.
Ionis SMAD7 oligonucleotides that caused any changes in organ weights outside the expected range for antisense oligonucleotides were excluded from further studies.

[4] = Plasma chemistry markers after oral gavage in beagle dogs (Example 12); details: 200 mg oral gavage for 4 weeks, plasma at day 30
Procedure: The study was conducted to evaluate the tolerability and pharmacodynamics of select human SMAD7 antisense oligonucleotides in beagle dogs following 4 weeks of treatment. The dogs were administered oligonucleotides by oral gavage.
as §1
To evaluate the effect of Ionis SMAD7 oligonucleotides on liver and kidney function, approximately 1.5 mL of blood samples were collected and put into tubes without anticoagulant for serum separation. The tubes were kept at room temperature for a minimum of 90 min and then centrifuged (approximately 3,000 rpm for 10 min) to obtain serum. Plasma levels of transaminases, albumin, bilirubin, and BUN were measured using an automated clinical chemistry analyzer (Toshiba 200FR Neo chemistry analyzer, Toshiba Co., Japan).

murine Smad7 mRNA = assay: Dose-dependent inhibition of murine Smad7 mRNA in bEND cells, electroporation (Example 5, Study 2); assay type: cell-based, mouse; details: electroporation; for % inhibition of SMAD7 mRNA expression: approximately 16 hours
Procedure: Many of the Ionis designed oligonucleotides as well as ION 736697/Mongersen are complementary to mouse Smad7 mRNA. […] After a treatment period of approximately 16 hours, the cells were washed and lyzed and RNA on 384-well Pall plates with DNase I treatment. Smad7 mRNA levels were measured by quantitative real-time PCR. Primer probe set RTS1114 (forward sequence […], designated herein as SEQ ID NO: 8; reverse sequence […], designated herein as SEQ ID NO: 9; probe sequence […], designated herein as SEQ ID NO: 10) was used to measure murine Smad7 mRNA levels. Smad7 mRNA levels were adjusted according to total RNA content, as measured by RIBOGREEN®. Results are presented as percent inhibition of Smad7 mRNA expression, relative to untreated control cells.
Many of the Ionis oligonucleotides had greater potency than ION 736697/Mongersen.

mouse Smad7 mRNA = assay: Murine Smad7 mRNA expression after oral administration in BALB/c mice (Example 11); assay type: in vivo; details: 500 mg/kg/day oral for 3 weeks, 24 hours after last dose
Procedure: The objective of this study was to evaluate the efficacy of Ionis SMAD7 antisense oligonucleotides in BALB/c mice following daily oral administration. The Ionis oligonucleotides are cross-reactive with mouse Smad7 mRNA.
Groups of BALB/c mice were orally administered 500 mg/kg/day for 3 weeks of human Smad7 oligonucleotides, ION 790615, ION 798781, or ION 830025, or mouse Smad7 oligonucleotide, ION 772797 (a 3-10-3 cEt gapmer with phosphorothioate backbone and sequence […]; designated herein as SEQ ID NO: 2743). One group of mice was orally administered PBS daily for 3 weeks. Each group contained 4 mice.
To evaluate the efficacy of the oligonucleotides, murine Smad7 mRNA expression in the liver, kidneys, duodenum, ileum, and colon was measured using primer probe set RTS1114.

[5] = Plasma chemistry markers after subcutaneous administration in CD-1 mice (Example 6); assay type: in vivo; details: CD-1 mice plasma at day 46; 50 mg/kg subcutaneously twice a week for 7 weeks
Procedure: CD-1® mice (Charles River, Mass.) are a multipurpose mice model, frequently utilized for safety and efficacy testing. The mice were treated with Ionis human SMAD7 antisense oligonucleotides selected from studies described above and evaluated.
Groups of 8-9 week old male CD-1 mice were injected subcutaneously twice a week for 7 weeks with 50 mg/kg of Ionis oligonucleotides (100 mg/kg/week dose). Each group contained 4 mice. One group of male CD-1 mice was injected subcutaneously twice a week for 7 weeks with PBS. […]

human SMAD7 mRNA = assay: Dose-dependent inhibition of human SMAD7 mRNA expression in Hep3B cells (Example 3, Study 1 and 2); assay type: cell-based; details: electroporation; for % inhibition of SMAD7 mRNA expression: approximately 16 hours; for IC50: Study 2 (740-20000 nM)
Summary of the method: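 Hep3B cells, 20,000 per well, electroporated with antisense oligonucleotide at 0.31, 1.25, 5.00 or 20.00 μM (first series) or 0.74, 2.22, 6.67 or 20.00 μM (second series). After ~16 h, SMAD7 mRNA measured by RT-qPCR (RTS5062), normalised to RIBOGREEN total RNA. Percent inhibition vs untreated cells; IC50 derived.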

[6] = 740 nM, Study 2, relative to untreated control cells

Row | Substance | Oligonucleotide concentration in the plasma on day 28 ([1]; 2 hr) | Oligonucleotide concentration in the plasma on day 28 ([1]; 4 hr) | Organ weights, Kidneys [3] | Organ weights, Liver [3] | Organ weights, Spleen [3] | % inhibition of SMAD7 mRNA expression (murine Smad7 mRNA; 0.25 μM) | % inhibition of SMAD7 mRNA expression (murine Smad7 mRNA; 0.74 μM) | % inhibition of SMAD7 mRNA expression (murine Smad7 mRNA; 2.22 μM) | % inhibition of SMAD7 mRNA expression (murine Smad7 mRNA; 6.67 μM) | % inhibition of SMAD7 mRNA expression (murine Smad7 mRNA; 20.00 μM) | IC50 (murine Smad7 mRNA) | ALT [5] | AST [5] | Albumin [5] | BUN [5] | % inhibition of SMAD7 mRNA expression (human SMAD7 mRNA; [6]) | % inhibition of SMAD7 mRNA expression (human SMAD7 mRNA; 2220 nM, Study 2) | % inhibition of SMAD7 mRNA expression (human SMAD7 mRNA; 6670.0 nM, Study 2) | % inhibition of SMAD7 mRNA expression (human SMAD7 mRNA; 20000.0 nM, Study 2) | IC50 (human SMAD7 mRNA) | further results
1 | 790615 (CCAATGAGAATGCTTC; 3-10-3 cEt gapmer, further chemistry not given here) [compound 790615] | 16.7 ng/mL | 4.8 ng/mL | 0.6 g | 2.0 g | 0.2 g | 7% | 18% | 37% | 47% | 64% | 7.3 µM | 65 IU/L | 97 IU/L | 2.2 g/dL | 22 mg/dL | – | – | – | – | – | Oligonucleotide concentration in the plasma on day 28 ([1]; 8 hr): 0.5 ng/mL; Oligonucleotide concentration in the plasma on day 28 ([1]; 24 hr): 0.0 ng/mL; Kidney weight (% of control) [2]: 94 % of control; Liver weight (% of control) [2]: 85 % of control; Spleen weight (% of control) [2]: 106 % of control; ALT (% of control) [4]: 118 % of control; AST (% of control) [4]: 147 % of control; Albumin (% of control) [4]: 98 % of control; BUN (% of control) [4]: 108 % of control; Bilirubin (% of control) [4]: 102 % of control; Mouse Smad7 mRNA expression (% inhibition), Colon (mouse Smad7 mRNA): 72 % inhibition; Mouse Smad7 mRNA expression (% inhibition), Duodenum (mouse Smad7 mRNA): 54 % inhibition; Mouse Smad7 mRNA expression (% inhibition), Ileum (mouse Smad7 mRNA): 0 % inhibition; Mouse Smad7 mRNA expression (% inhibition), Kidney (mouse Smad7 mRNA): 41 % inhibition; Mouse Smad7 mRNA expression (% inhibition), Liver (mouse Smad7 mRNA): 52 % inhibition
2 | 798781 (CGTAAGATTCACAGCA; 3-10-3 cEt gapmer, further chemistry not given here) [compound 798781] | 18.7 ng/mL | 5.4 ng/mL | 0.6 g | 2.3 g | 0.1 g | 0% | 0% | 20% | 33% | 51% | 19.8 µM | 40 IU/L | 66 IU/L | 2.2 g/dL | 26 mg/dL | 46% | 64% | 81% | 87% | 2000 nM | Oligonucleotide concentration in the plasma on day 28 ([1]; 8 hr): 3.6 ng/mL; Oligonucleotide concentration in the plasma on day 28 ([1]; 24 hr): 0.4 ng/mL; Kidney weight (% of control) [2]: 86 % of control; Liver weight (% of control) [2]: 91 % of control; Spleen weight (% of control) [2]: 102 % of control; ALT (% of control) [4]: 115 % of control; AST (% of control) [4]: 114 % of control; Albumin (% of control) [4]: 101 % of control; BUN (% of control) [4]: 104 % of control; Bilirubin (% of control) [4]: 114 % of control; Mouse Smad7 mRNA expression (% inhibition), Colon (mouse Smad7 mRNA): 0 % inhibition; Mouse Smad7 mRNA expression (% inhibition), Duodenum (mouse Smad7 mRNA): 47 % inhibition; Mouse Smad7 mRNA expression (% inhibition), Ileum (mouse Smad7 mRNA): 0 % inhibition; Mouse Smad7 mRNA expression (% inhibition), Kidney (mouse Smad7 mRNA): 12 % inhibition; Mouse Smad7 mRNA expression (% inhibition), Liver (mouse Smad7 mRNA): 0 % inhibition
3 | 829994 (GGAGGCAGGGCCGCGA; 3-10-3 cEt gapmer, further chemistry not given here) [compound 829994] | – | – | 0.7 g | 2.6 g | 0.3 g | – | – | – | – | – | – | 65 IU/L | 90 IU/L | 2.9 g/dL | 25 mg/dL | 25% | 54% | 69% | 80% | 1000 nM | –
4 | 830025 (antisense TTTGTAAATCGAAAGC; 3-10-3 cEt gapmer, further chemistry not given here) [compound 830025] | 13.6 ng/mL | 3.8 ng/mL | 0.6 g | 2.2 g | 0.2 g | 15% | 27% | 51% | 67% | 77% | 2.7 µM | 208 IU/L | 263 IU/L | 2.5 g/dL | 25 mg/dL | 42% | 58% | 72% | 88% | < 700 nM | Oligonucleotide concentration in the plasma on day 28 ([1]; 8 hr): 1.7 ng/mL; Oligonucleotide concentration in the plasma on day 28 ([1]; 24 hr): 0.0 ng/mL; Kidney weight (% of control) [2]: 99 % of control; Liver weight (% of control) [2]: 79 % of control; Spleen weight (% of control) [2]: 87 % of control; ALT (% of control) [4]: 117 % of control; AST (% of control) [4]: 106 % of control; Albumin (% of control) [4]: 96 % of control; BUN (% of control) [4]: 93 % of control; Bilirubin (% of control) [4]: 96 % of control; Mouse Smad7 mRNA expression (% inhibition), Colon (mouse Smad7 mRNA): 39 % inhibition; Mouse Smad7 mRNA expression (% inhibition), Duodenum (mouse Smad7 mRNA): 51 % inhibition; Mouse Smad7 mRNA expression (% inhibition), Ileum (mouse Smad7 mRNA): 0 % inhibition; Mouse Smad7 mRNA expression (% inhibition), Kidney (mouse Smad7 mRNA): 31 % inhibition; Mouse Smad7 mRNA expression (% inhibition), Liver (mouse Smad7 mRNA): 25 % inhibition
5 | 830037 (antisense CTATTGGCTGATCTGG; 3-10-3 cEt gapmer, further chemistry not given here) [compound 830037] | – | – | – | – | – | 0% | 6% | 1% | 0% | 0% | > 20 µM | – | – | – | – | 30% | 56% | 70% | 87% | 3000 nM | –
6 | 830121 (AGAATCAAGCCCTGGC; 3-10-3 cEt gapmer, further chemistry not given here) [compound 830121] | – | – | 0.6 g | 2.4 g | 0.2 g | 0% | 6% | 12% | 17% | 20% | > 20 µM | 198 IU/L | 151 IU/L | 1.9 g/dL | 21 mg/dL | 37% and 54% | 48% and 63% | 69% and 79% | 85% and 86% | < 700 nM | –
